From US12369578B2, “Use of a nematicide composition” (DESARROLLO AGRICOLA Y MINERO, S.A., priority 2019, dated 2025)

Legend:
M. incognita [1] = experiment: Egg hatching, laboratory test in sterile water; assay type: in vivo; details: M. incognita eggs; 0.025%, 0.05%, 0.1%; counts about every 72 h for 3-4 weeks
Source text: (§1) The aim of the protocol was to evaluate the nematicidal efficacy of the formulation and of the active ingredients, cinnamic aldehyde and terpene alcohol, separately. For this trial M. incognita and M. javanica nematodes were used.
(§2) • 1. Untreated control specimen: Eggs or juvenile nematodes in sterile water. • 2. Eggs or juveniles with 0.025% of the formulation in sterile water. • 3. Eggs or juveniles with 0.05% of the formulation in sterile water. • 4. Eggs or juveniles with 0.1% of the formulation in sterile water. • 5. Eggs or juveniles with 0.025% of terpene alcohol in sterile water plus innocuous solvent. • 6. Eggs or juveniles with 0.05% of terpene alcohol in sterile water plus innocuous solvent. • 7. Eggs or juveniles with 0.1% of terpene alcohol in sterile water plus innocuous solvent. • 8. Eggs or juveniles with 0.025% of cinnamic aldehyde in sterile water plus innocuous solvent. • 9. Eggs or juveniles with 0.05% of cinnamic aldehyde in sterile water plus innocuous solvent. • 10. Eggs or juveniles with 0.1% of cinnamic aldehyde in sterile water plus innocuous solvent. Results:
(§3) The treatments with juveniles hatched at 0 h, 24 h, 48 h and 72 h. The number of hatched eggs was determined approximately every 72 h for 3-4 weeks. […]

M. incognita [2] = experiment: Juvenile (J2) mortality, laboratory test in sterile water; assay type: in vivo; details: all concentrations (0.025%, 0.05%, 0.1%), in less than 24 h
Source text: as §1, §2, §3

In the case of `O=C/C=C/c1ccccc1` [cinnamic aldehyde, (2E)-3-phenylprop-2-enal], the egg hatching (M. incognita [1]) was “inhibited the hatching of juveniles” and the “mortality of J2” value (M. incognita [2]) was 100%.
